The results in this text go back to patent publication US20030180341A1, “Biocompatible hydrophilic films from polymeric mini-emulsions for application to skin” (priority 2002, published 2003).

Assay [1] can be described thus: Anti-microbial effect of mini-emulsion/film compositions with sodium hypochlorite. The note with it: provided in the mini-emulsion/film compositions, preferably between about 0.1 and about 0.5% by weight of solids.
Assay [2] in a line: Antifungal properties of films containing caprylic fatty acid. The settings on record: dried film.
Assay [3] is described as follows: Antibacterial properties of films and mini-emulsions containing caprylic fatty acid.

Turning to `OCl` [sodium hypochlorite], the anti-microbial effect result in assay [1] is reported as “effective as a broad spectrum anti-microbial”.

For `CCCCCCCC(=O)O` [caprylic fatty acid], the antifungal properties entry in assay [2] was “broad spectrum antifungal properties”. The antibacterial effect entry in assay [3] (dried film) was “mild antibacterial effect”. The antibacterial properties result in assay [3] (liquid mini-emulsion) is reported as “broad spectrum antibacterial properties”.
